Experimental findings from patent US8227425B2, “Antiviral compounds” (Therapicon Srl, priority 2007, dated 2012) are described below.

What all share (experiment): microbe, parasite or virus in culture
One assay concerns B/Shandong/7/97. It is filed as cell-based. To be noted: for IC50: Influenza B virus, 72 h, read-out: concentration of the compound necessary to reduce the plaques number to 50% against the control.
Assay [1] relates to A/NewCaledonia/20/99-H1N1. It is filed as cell-based, influenza virus type A. As to conditions: for IC50: Influenza A virus, H1N1, MDCK, 72 h, read-out: concentration of the compound necessary to reduce the plaques number to 50% against the control.
A further assay has as its system A/Panama/2007/99-H3N2. It is filed as cell-based, influenza virus type A. To be noted: for IC50: Influenza A virus, H3N2, MDCK, 72 h, read-out: concentration of the compound necessary to reduce the plaques number to 50% against the control.
Where [2] appears, read: MDCK cells, about 50 PFU/ml, 3 days, tested 0.01-100 μM, duplicate.

Where two headings read alike, the source gives them in different places.

As for `NC12CC3CC(CC(C3)C1)C2` [Amantadine, amantadine, reference compound], the IC50 with B/Shandong/7/97 (MDCK) was above 100 µM; in assay [1], 0.1 µM; with A/Panama/2007/99-H3N2, 10 µM.
For the compound `CC(=O)NC1C(O)CC(O)(C(=O)O)OC1CNC12CC3CC(CC(C3)C1)C2` (stereo not shown) [Compound 1], the IC50 in the assay on B/Shandong/7/97 (setting [2]) amounted to 10 µM; in assay [1], 1 µM; in the assay with A/Panama/2007/99-H3N2 it was 10 µM. For the same compound, the “antiviral activity relative to amantadine (fold less)” value in assay [1] came to 10 fold.
With `CC(=O)NC1C(O)CC(O)(C(=O)O)OC1CNC12CC3CC(C)(CC(C)(C3)C1)C2` (stereo not shown) [Compound 8], the IC50 in the assay with B/Shandong/7/97 (setting [2]) is above 100 µM; in assay [1], 10 µM; with A/Panama/2007/99-H3N2 it was 10 µM. Besides, in the assay with B/Shandong/7/97 (tested 0.01-100 μM, PRA), the “antiviral activity against influenza virus type B in the tested concentration range” value is given as “Any antiviral activity of Compound 8 has been evidenced”. The “antiviral activity relative to memantine (fold more)” value (in assay [1]; with A/Panama/2007/99-H3N2) was around 10 fold each time.
Regarding `CC12CC3CC(C)(C1)CC(N)(C3)C2` [Memantine, memantine, reference compound], the IC50 (in the assay on B/Shandong/7/97 (setting [2]); in assay [1]; with A/Panama/2007/99-H3N2) was 100 µM each time.
